Assay results: patent US7183091B2, “Sulfite reductase, the process for producing the same and the use thereof” (Nugen Bioscience (Taiwan) Co., Ltd., priority 2003, dated 2007)
Where two headings read alike, the source gives them in different places.

Tests used:
[1] = tested on: sulfite reductase from Escherichia coli; assay: Effects of metal ions, inhibitors and reducing agents on enzyme activity; type: biochemical
Description: (§1) […]. To 0.9 mL reaction mixture [0.1 M phosphate buffer (pH 7.7) containing 0.5 mM EDTA, 0.5 mM NaHSO3, 1 μM FMN, and 0.2 mM NADPH], 0.1 mL of reductase was added and incubated at 25° C. The activity was determined according to the initial velocity after the addition of reductase and corrected by the slow oxidation of NADPH in the absence of sulfite. One activity unit was defined as the amount of enzyme which catalyzed the oxidation of 1 μmol NADPH within 1 minute reaction 25° C. under the above condition.

[2] = target: T1, sulfite reductase from Saccharomyces cerevisiae (Saccharomyces cerevisiae, UniProt P39692+P47169); assay: as above; type: biochemical; details: for effect of metal ions on catalytic activity: metals 0.5, 1.0, 5.0 and 10.0 mM
T1 construct: Saccharomyces cerevisiae cell was collected by 30 min centrifugation at 4,000×g; made in house; host or cells: endogenous enzyme purified from cultured Saccharomyces cerevisiae cells (not recombinant)
T1 sequence (P47169 1-1442): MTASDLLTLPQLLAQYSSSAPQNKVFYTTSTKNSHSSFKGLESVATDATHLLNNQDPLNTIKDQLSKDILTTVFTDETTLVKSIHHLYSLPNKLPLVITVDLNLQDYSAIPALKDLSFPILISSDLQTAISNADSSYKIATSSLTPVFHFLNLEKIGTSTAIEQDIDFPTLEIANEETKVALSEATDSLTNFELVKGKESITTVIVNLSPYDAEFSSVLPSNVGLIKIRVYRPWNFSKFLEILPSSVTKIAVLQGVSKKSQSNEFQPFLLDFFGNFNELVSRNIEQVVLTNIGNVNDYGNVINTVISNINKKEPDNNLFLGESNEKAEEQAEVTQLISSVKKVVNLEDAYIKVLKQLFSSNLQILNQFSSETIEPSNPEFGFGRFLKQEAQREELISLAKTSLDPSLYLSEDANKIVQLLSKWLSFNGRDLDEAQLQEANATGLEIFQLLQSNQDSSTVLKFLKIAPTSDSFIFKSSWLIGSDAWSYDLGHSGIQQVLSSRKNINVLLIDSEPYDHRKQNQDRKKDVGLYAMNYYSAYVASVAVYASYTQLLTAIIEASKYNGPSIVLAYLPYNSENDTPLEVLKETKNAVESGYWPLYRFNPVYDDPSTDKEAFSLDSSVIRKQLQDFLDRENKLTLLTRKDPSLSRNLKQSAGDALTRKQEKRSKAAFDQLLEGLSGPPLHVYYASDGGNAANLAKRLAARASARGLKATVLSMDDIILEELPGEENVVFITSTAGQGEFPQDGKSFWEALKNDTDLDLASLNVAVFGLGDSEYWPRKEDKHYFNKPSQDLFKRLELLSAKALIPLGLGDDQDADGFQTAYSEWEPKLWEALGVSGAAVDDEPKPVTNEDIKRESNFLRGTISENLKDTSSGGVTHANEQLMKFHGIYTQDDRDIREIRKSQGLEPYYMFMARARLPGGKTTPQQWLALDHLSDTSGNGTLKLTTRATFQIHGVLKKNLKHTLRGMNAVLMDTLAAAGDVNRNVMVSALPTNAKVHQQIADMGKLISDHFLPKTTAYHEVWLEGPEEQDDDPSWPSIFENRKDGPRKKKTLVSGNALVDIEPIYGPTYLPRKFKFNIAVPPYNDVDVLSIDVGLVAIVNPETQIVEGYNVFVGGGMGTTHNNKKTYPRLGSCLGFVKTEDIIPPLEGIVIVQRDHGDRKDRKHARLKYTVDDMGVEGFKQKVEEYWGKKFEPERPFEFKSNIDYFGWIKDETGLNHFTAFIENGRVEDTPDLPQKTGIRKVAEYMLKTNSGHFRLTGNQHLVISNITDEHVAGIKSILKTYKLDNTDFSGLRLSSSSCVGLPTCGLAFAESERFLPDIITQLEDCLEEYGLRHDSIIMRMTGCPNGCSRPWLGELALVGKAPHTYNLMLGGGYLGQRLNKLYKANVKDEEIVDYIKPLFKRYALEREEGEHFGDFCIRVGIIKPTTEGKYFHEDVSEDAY
T1 sequence (P39692 1-1035): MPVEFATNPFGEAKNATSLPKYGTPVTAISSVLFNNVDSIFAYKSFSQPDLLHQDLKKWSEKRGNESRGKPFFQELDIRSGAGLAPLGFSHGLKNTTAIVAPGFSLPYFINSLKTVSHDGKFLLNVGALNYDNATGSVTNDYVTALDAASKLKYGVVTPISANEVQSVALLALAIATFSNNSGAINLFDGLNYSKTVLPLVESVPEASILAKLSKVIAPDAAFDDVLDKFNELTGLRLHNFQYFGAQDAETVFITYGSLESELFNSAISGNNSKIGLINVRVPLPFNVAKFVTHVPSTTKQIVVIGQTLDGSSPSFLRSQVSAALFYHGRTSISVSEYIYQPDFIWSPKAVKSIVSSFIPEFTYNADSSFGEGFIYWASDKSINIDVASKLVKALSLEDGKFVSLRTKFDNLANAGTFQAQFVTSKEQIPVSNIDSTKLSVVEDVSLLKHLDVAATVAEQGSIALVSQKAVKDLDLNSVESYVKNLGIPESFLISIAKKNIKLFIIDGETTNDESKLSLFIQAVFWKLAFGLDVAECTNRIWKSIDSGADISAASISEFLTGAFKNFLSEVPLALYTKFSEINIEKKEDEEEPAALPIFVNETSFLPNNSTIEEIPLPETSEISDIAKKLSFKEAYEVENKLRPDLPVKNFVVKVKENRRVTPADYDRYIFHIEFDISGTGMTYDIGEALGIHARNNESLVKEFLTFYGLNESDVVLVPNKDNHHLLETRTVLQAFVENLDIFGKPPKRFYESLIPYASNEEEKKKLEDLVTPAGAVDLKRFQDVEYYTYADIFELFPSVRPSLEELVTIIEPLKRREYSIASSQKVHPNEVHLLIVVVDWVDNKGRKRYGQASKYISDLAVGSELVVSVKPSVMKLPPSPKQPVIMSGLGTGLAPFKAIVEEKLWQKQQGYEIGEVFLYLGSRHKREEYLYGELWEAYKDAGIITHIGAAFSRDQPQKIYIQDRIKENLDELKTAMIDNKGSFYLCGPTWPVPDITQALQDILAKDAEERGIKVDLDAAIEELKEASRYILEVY
Description: as §1

[3] = Determination of sulfite reductase activity (oxidation of NADPH by sulfite, 340 nm); type: biochemical
Description: The sulfite reductase activity was measured spectrophotometrically at 340 nm under aerobic conditions by following the oxidation of NADPH by sulfite according to the method of determining enzyme activity of Siegel and others (1973). To 0.9 mL reaction mixture [0.1 M phosphate buffer (pH 7.7) containing 0.5 mM EDTA, 0.5 mM NaHSO3, 1 μM FMN, and 0.2 mM NADPH], 0.1 mL of reductase was added and incubated at 25° C. The activity was determined according to the initial velocity after the addition of reductase and corrected by the slow oxidation of NADPH in the absence of sulfite. One activity unit was defined as the amount of enzyme which catalyzed the oxidation of 1 μmol NADPH within 1 minute reaction 25° C. under the above condition.

[4] = Optimal pH value of the sulfite reductase; type: biochemical; details: 25° C., 5 minutes
Description: Optimal pH value. To 0.9 mL reaction mixture with various pHs (0.2 M citrated buffer: pH 4.0 to 6.0; 0.2 M phosphate buffer: pH 6.0 to 8.0 and 0.2 M bicarbonate buffer: pH 8.0 to 10,0; all buffers containing 0.5 mM EDTA, 0.5 mM NaHSO3, 1 μM FMN, and 0.2 mM NADPH), 0.1 mL of reductase was added and incubated at 25° C. for 5 minutes. The activity was determined from initial velocity and corrected by the oxidation of NADPH in the absence of sulfite according the method of Siegel and others (1973).

[5] = Optimal temperature of the sulfite reductase; type: biochemical; details: pH 7.7, 5 minutes
Description: Optimal temperature. To 0.9 mL reaction mixture [0.1 M phosphate buffer (pH 7.7) containing 0.5 mM EDTA, 0.5 mM NaHSO3, 1 μM FMN, and 0.2 mM NADPH], 0.1 mL of reductase was added and incubated at various temperatures (5, 10, 15, 20, 25, 30, 35, 40, 45, 50, 55 and 60° C.) for 5 minutes. The activity was determined from initial velocity and corrected by the oxidation of NADPH in the absence of sulfite according the method of Siegel and others (1973).

[6] = Stability of low temperature storage of the enzyme solution; type: physicochemical
Description: The enzyme solution was stored at 4° C. and −20° C., respectively. The residue enzyme activity was determined per constant time interval to test the stability of low-temperature storage.

[7] = metals 0.5, 1.0, 5.0 and 10.0 mM, 25° C., 30 minutes
[8] = inhibitor 1.0 mM, 25° C., 30 minutes

Row | Molecule | effect of metal ions on catalytic activity [1, 7] | effect of metal ions on catalytic activity ([2]; 25° C., 30 minutes) | other results
1 | O[C@H](CS)[C@H](O)CS (racemic) [dithiothreitol] |  |  | effect of reducing agents on enzyme activity [1]: improved the activity; effect of reducing agents on enzyme activity [2]: improved the activity
2 | [Ba+2] [Ba^2+] | moderately | partially | 
3 | [Ca+2] [Ca^2+] | strongly inhibited | did not affect the enzyme activity | 
4 | [Cd+2] [Cd^2+] | moderately |  | 
5 | [Co+2] [Co^2+] | strongly inhibited | partially | 
6 | [Cu+2] [Cu^2+] | strongly inhibited | strongly inhibited | 
7 | [Fe+2] [Fe^2+] | strongly inhibited | partially | 
8 | [Hg+2] [Hg^2+] | strongly inhibited | strongly inhibited | 
9 | O=C(O)CI [IAA, Iodoacetate] |  |  | effect of inhibitors on catalytic activity [1]: partially; effect of inhibitors on catalytic activity [2]: partially
10 | [K+] [K^+] |  | did not affect the enzyme activity | effect of metal ions on catalytic activity [1]: did not affect the enzyme activity
11 | [Mg+2] [Mg^2+] | did not affect the enzyme activity | did not affect the enzyme activity | 
12 | [Mn+2] [Mn^2+] | moderately | partially | 
13 | CCN1C(=O)C=CC1=O [NEM, N-ethylmaleimide] |  |  | effect of inhibitors on catalytic activity [1, 8]: partially; effect of inhibitors on catalytic activity [2, 8]: partially
14 | [Na+] [Na^+] | did not affect the enzyme activity | did not affect the enzyme activity | 
15 | [Ni+2] [Ni^2+] |  | partially | 
16 | O=C(O)c1cc[c]([Hg][Cl])cc1 [PCMB, p-chloromercuribenzoate] |  |  | effect of inhibitors on catalytic activity [1, 8]: completely inhibited; effect of inhibitors on catalytic activity [2, 8]: completely inhibited
17 | O=S(=O)(O)c1cc[c]([Hg][Cl])cc1 [PCMPS, p-chloromercuriphenylsulfonic acid] |  |  | effect of inhibitors on catalytic activity [2, 8]: completely inhibited
18 | O=S(=O)(F)Cc1ccccc1 [PMSF, phenylmethylsulfonyl fluoride] |  |  | effect of inhibitors on catalytic activity [1, 8]: partially; effect of inhibitors on catalytic activity [2, 8]: partially
19 | [Pb+2] [Pb^2+] |  | strongly inhibited | 
20 | [Zn+2] [Zn^2+] | moderately | strongly inhibited | 
21 | N[C@@H](CS)C(=O)O [cysteine] |  |  | effect of reducing agents on enzyme activity [1]: improved the activity; effect of reducing agents on enzyme activity [2]: improved the activity
22 | N[C@@H](CCC(=O)N[C@@H](CS)C(=O)NCC(=O)O)C(=O)O [glutathione] |  |  | effect of reducing agents on enzyme activity [1]: improved the activity; effect of reducing agents on enzyme activity [2]: improved the activity
23 | OCCS [β-mercaptoethanol] |  |  | effect of reducing agents on enzyme activity [1]: improved the activity; effect of reducing agents on enzyme activity [2]: improved the activity
24 | sulfite reductase from Saccharomyces cerevisiae: purified sulfite reductase from Saccharomyces cerevisiae (CCRC 22223), molecular weight 358,000 |  |  | specific activity ([3]; Table 2, purification steps of the Saccharomyces cerevisiae enzyme): 1.34 units/mg; specific activity ([3]; purified enzyme, 25° C., pH 7.7): 1.34 units/mg; optimum pH [4]: 7.3; optimum temperature [5]: 25 °C; enzyme activity after storage ([6]; enzyme solution stored for 2 months at −20° C.): nearly not changed; enzyme activity after storage ([6]; enzyme solution stored for 28 days at 4° C.): 77.8%
